According to ChEMBL document CHEMBL1221281, “Discovery of 2-(4-((1H-1,2,4-triazol-1-yl)methyl)-5-(4-bromophenyl)-1-(2-chlorophenyl)-1H-pyrazol-3-yl)-5-tert-butyl-1,3,4-thiadiazole (GCC2680) as a potent, selective and orally efficacious cannabinoid-1 receptor antagonist” (Bioorg Med Chem, 2010):

How the values were obtained:
Cannabinoid receptor 2 = Cannabinoid receptor 2 (Homo sapiens, UniProt P34972); test: Displacement of [3H]WIN-55212-2 from human CB2 receptor expressed in CHO-K1 cells after 1 hr by liquid scintillation counting; format: cell-based
[1] = Selectivity ratio of IC50 for human CB2 receptor to IC50 for CB1 receptor in Sprague-Dawley rat cerebellum; format: tissue-based
Cannabinoid receptor 1 = Cannabinoid receptor 1 (Rattus norvegicus, UniProt P20272)
Description: Displacement of [3H]CP-55940 from CB1 receptor in Sprague-Dawley rat cerebellum after 1 hr by liquid scintillation counting

Mus musculus [2] = test: Antiobesity activity in diet-induced obesity C57BL/6 mouse model assessed as reduction of body weight at 10 mg/kg, po qd for 14 days; format: functional; parameters: scale not given: the % may be the effect or the level left
Rattus norvegicus [3] = test: Antiobesity activity in diet-induced obesity Sprague-Dawley rat model assessed as reduction of body weight administered at 10 mg/kg, po qd for 13 days; format: functional; parameters: scale not given: the % may be the effect or the level left
[4] = Tmax in Sprague-Dawley rat at 5 mg/kg, po; format: ADME, organism-based; parameters: dose 5 mg/kg, route oral; details: in vivo
[5] = Cmax in Sprague-Dawley rat at 5 mg/kg, po; format: ADME, organism-based; parameters: dose 5 mg/kg, route oral; details: in vivo
[6] = Cmax in Sprague-Dawley rat at 1 mg/kg, iv; format: ADME, organism-based; parameters: dose 1 mg/kg, route intravenous; details: in vivo
Rattus norvegicus [7] = test: Clast in Sprague-Dawley rat at 5 mg/kg, po; format: ADME, organism-based; parameters: dose 5 mg/kg, route oral; details: in vivo
Rattus norvegicus [8] = test: Clast in Sprague-Dawley rat at 1 mg/kg, iv; format: ADME, organism-based; parameters: dose 1 mg/kg, route intravenous; details: in vivo
[9] = Half life in Sprague-Dawley rat at 5 mg/kg, po; format: ADME, organism-based; parameters: dose 5 mg/kg, route oral; details: in vivo
[10] = Half life in Sprague-Dawley rat at 1 mg/kg, iv; format: ADME, organism-based; parameters: dose 1 mg/kg, route intravenous; details: in vivo
[11] = Clearance in Sprague-Dawley rat at 1 mg/kg, iv; format: ADME, organism-based; parameters: dose 1 mg/kg, route intravenous; details: in vivo
Rattus norvegicus [12] = test: AUC (0 to infinity) in Sprague-Dawley rat at 5 mg/kg, po; format: ADME, organism-based, Plasma; parameters: time infinity, dose 5 mg/kg, route oral; details: in vivo
Rattus norvegicus [13] = test: AUC (0 to infinity) in Sprague-Dawley rat at 1 mg/kg, iv; format: ADME, organism-based, Plasma; parameters: time infinity, dose 1 mg/kg, route intravenous; details: in vivo
[14] = Oral bioavailability in Sprague-Dawley rat at 5 mg/kg, po; format: ADME, organism-based; details: in vivo
[15] = Ratio of drug level in brain to plasma in Sprague-Dawley rat; format: ADME
Cytochrome P450 1A2 = target: T1, Cytochrome P450 1A2 (Homo sapiens, UniProt P05177); test: Inhibition of CYP1A2 in human liver microsomes after 30 mins; format: ADME, Microsome
T1 sequence (P05177 whole entry): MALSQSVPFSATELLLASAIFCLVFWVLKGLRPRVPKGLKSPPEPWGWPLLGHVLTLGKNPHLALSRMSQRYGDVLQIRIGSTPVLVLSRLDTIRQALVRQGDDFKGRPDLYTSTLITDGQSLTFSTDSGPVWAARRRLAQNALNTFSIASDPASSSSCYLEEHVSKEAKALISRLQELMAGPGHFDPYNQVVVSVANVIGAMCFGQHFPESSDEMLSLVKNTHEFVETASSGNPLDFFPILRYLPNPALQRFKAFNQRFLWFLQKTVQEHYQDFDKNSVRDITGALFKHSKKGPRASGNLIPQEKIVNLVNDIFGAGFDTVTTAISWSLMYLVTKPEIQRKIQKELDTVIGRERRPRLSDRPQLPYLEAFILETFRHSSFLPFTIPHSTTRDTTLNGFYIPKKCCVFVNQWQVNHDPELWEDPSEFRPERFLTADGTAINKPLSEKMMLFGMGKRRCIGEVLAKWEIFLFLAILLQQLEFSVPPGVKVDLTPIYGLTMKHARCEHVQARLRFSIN

Cytochrome P450 2C9 = Cytochrome P450 2C9 (Homo sapiens, UniProt P11712); test: Inhibition of CYP2C9 in human liver microsomes after 30 mins; format: ADME, Microsome
[16] = target: Voltage-gated inwardly rectifying potassium channel KCNH2 (Homo sapiens, UniProt Q12809); test: Inhibition of human ERG at holding potential of -80 mV to +40 mV
Nucleic Acid = test: Induction of DNA damage up to 50 uM after 2 hrs by comet assay; format: nucleic-acid assay
[17] = Mutagenic activity in Salmonella Typhimurium TA100 assessed as number of spontaneous and drug-induced revertants after 48 hrs by Ames test; format: toxicity; details: salmonella enterica subsp. enterica serovar typhimurium
Cytochrome P450 2D6 = Cytochrome P450 2D6 (Homo sapiens, UniProt P10635); test: Inhibition of CYP2D6 in human liver microsomes after 30 mins; format: ADME, Microsome
Cytochrome P450 3A4 = Cytochrome P450 3A4 (Homo sapiens, UniProt P08684); test: Inhibition of CYP3A4 in human liver microsomes after 30 mins; format: ADME, Microsome
Mus musculus [18] = test: Antiobesity activity in diet-induced obesity C57BL/6 mouse model assessed as reduction of body weight at 3 mg/kg, po qd for 13 days; format: functional; parameters: scale not given: the % may be the effect or the level left
[19] = Cytotoxicity against human HuH7 cells; format: cell-based; details: Huh-7
Vero = test: Cytotoxicity against african green monkey Vero cells; format: cell-based; details: Chlorocebus sabaeus
HCT-116 = test: Cytotoxicity against human HCT116 cells; format: cell-based
HEK293 = test: Cytotoxicity against human HEK293 cells; format: cell-based

Sequence of Cannabinoid receptor 1 (P20272 whole entry): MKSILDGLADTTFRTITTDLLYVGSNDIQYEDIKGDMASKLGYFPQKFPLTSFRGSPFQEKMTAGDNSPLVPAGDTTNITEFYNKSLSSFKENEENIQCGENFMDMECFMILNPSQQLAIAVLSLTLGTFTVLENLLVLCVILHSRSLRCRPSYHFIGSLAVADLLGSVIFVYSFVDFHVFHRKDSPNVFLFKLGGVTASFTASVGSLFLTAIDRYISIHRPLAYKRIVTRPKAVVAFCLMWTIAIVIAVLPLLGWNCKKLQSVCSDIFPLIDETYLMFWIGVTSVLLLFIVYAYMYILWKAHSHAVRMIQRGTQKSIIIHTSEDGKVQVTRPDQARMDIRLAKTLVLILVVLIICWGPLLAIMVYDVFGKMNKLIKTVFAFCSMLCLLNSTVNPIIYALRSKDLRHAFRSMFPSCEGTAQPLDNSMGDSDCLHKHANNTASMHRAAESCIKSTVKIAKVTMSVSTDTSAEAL
Sequence of Cannabinoid receptor 2 (P34972 whole entry): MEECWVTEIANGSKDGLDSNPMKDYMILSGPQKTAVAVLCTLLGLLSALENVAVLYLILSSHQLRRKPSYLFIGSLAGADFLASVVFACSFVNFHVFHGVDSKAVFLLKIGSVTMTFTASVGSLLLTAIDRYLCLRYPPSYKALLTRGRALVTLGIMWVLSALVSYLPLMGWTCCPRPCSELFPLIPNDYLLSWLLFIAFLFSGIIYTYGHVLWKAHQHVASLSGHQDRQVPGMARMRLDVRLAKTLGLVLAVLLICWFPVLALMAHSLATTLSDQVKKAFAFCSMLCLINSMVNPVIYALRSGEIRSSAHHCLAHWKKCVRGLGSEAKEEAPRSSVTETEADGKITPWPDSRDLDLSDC
Sequence of Cytochrome P450 2C9 (P11712 whole entry): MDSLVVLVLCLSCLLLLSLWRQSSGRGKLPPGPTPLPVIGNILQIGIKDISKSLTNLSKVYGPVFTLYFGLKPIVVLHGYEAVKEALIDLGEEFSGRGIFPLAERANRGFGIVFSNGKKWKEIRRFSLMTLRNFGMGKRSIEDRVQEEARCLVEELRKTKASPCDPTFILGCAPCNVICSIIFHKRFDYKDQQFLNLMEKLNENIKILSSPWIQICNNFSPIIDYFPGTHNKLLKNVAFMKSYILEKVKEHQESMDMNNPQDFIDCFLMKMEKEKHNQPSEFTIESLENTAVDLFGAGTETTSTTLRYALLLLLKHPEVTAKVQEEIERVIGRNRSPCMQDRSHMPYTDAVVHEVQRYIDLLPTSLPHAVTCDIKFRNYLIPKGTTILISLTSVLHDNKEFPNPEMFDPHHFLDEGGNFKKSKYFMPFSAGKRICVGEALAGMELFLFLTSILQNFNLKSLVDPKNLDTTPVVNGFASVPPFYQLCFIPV
Sequence of Cytochrome P450 2D6 (P10635 whole entry): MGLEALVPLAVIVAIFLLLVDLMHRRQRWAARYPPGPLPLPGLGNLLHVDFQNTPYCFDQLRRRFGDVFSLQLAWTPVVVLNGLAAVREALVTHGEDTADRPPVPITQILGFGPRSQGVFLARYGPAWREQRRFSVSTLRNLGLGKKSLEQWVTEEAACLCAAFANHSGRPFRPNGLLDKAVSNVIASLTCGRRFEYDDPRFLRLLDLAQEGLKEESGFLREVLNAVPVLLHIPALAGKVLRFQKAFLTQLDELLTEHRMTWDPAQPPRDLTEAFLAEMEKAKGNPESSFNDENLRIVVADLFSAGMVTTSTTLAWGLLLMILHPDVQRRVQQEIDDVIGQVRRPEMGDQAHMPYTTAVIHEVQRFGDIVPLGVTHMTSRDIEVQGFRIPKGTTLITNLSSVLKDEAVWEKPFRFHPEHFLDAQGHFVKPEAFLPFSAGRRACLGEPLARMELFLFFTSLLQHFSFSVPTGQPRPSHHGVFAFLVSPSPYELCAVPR
Sequence of Cytochrome P450 3A4 (P08684 whole entry): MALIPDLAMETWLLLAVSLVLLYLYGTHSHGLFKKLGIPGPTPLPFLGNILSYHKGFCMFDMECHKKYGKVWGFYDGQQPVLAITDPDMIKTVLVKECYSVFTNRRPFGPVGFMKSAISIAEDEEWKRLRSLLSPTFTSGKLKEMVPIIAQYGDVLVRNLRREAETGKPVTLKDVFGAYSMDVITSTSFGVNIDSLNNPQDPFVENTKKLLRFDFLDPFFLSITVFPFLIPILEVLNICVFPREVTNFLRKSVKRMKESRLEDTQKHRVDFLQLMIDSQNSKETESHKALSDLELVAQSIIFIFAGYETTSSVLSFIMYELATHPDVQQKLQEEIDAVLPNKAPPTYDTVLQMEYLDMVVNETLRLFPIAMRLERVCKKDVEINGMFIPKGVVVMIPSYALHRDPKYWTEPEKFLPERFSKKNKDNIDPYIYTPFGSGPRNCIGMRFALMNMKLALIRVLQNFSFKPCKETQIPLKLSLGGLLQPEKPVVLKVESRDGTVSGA
Sequence of Voltage-gated inwardly rectifying potassium channel KCNH2 (Q12809 whole entry): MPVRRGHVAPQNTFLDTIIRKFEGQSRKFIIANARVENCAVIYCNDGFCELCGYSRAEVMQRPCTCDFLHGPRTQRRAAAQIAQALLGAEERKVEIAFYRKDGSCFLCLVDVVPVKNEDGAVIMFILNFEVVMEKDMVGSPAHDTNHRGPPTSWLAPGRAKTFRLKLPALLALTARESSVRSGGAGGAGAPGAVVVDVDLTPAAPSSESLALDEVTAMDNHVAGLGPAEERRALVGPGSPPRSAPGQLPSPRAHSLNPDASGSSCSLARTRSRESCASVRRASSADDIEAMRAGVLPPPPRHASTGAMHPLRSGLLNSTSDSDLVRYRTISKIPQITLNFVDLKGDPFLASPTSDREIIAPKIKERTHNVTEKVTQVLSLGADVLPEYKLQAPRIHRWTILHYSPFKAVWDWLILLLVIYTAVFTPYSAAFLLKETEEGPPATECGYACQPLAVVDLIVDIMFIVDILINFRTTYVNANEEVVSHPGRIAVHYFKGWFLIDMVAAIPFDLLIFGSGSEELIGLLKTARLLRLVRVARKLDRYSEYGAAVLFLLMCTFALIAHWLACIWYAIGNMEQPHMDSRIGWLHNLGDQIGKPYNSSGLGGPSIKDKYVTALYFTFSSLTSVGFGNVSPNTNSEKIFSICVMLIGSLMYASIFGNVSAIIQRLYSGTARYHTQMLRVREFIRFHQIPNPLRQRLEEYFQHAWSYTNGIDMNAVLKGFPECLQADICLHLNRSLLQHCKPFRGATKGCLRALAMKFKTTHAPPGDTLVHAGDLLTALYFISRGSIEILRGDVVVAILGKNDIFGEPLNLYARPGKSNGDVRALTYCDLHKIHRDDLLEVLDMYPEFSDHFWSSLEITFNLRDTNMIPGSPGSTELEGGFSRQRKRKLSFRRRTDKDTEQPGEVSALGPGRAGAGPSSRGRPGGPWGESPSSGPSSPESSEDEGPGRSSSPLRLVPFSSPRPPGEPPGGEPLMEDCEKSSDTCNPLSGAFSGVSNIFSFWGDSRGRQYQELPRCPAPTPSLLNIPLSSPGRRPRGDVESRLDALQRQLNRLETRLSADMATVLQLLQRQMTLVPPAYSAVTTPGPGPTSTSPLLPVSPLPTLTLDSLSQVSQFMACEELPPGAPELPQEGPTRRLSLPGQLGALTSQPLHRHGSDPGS

| SMILES | IC50 (Cannabinoid receptor 2) [nM] | Ratio IC50 [1] | IC50 (Cannabinoid receptor 1) [nM] | Activity (Mus musculus [2]) [%] | further results |
| --- | --- | --- | --- | --- | --- |
| FC(F)(F)C1(c2nnc(-c3nn(-c4ccccc4Cl)c(-c4ccc(Br)cc4)c3Cn3cncn3)s2)CCC1 | 73.6 | 87 | 0.848 | – | – |
| C[C@H](NC(=O)C(C)(C)Oc1ccc(C(F)(F)F)cn1)[C@@H](Cc1ccc(Cl)cc1)c1cccc(C#N)c1 [TARANABANT] | – | – | – | 29.55 | Activity (Rattus norvegicus [3]): 17.16%; Tmax [4]: 0.5 h; Cmax [5]: 360 ng/mL; Cmax [6]: 470 ng/mL; Clast (Rattus norvegicus [7]): 20 ng/mL; Clast (Rattus norvegicus [8]): 10 ng/mL; half-life [9]: 14.8 h; half-life [10]: 2.76 h; clearance [11]: 40.8 mL/min/kg; AUC (Rattus norvegicus [12]): 83.64 min/µg/mL; AUC (Rattus norvegicus [13]): 24.75 min/µg/mL; bioavailability [14]: 67.6%; BPR [15]: 52%; IC50 (Cytochrome P450 1A2): > 20000 nM; IC50 (Cytochrome P450 2C9): 930 nM; IC50 [16]: 14200 nM; Activity (Nucleic Acid): Non-toxic; Activity [17]: Non-toxic; IC50 (Cytochrome P450 2D6): 590 nM |
| FC(F)(F)c1ccccc1-n1nc(-c2nnc(C3(C(F)(F)F)CCC3)s2)c(Cn2cncn2)c1-c1ccc(Br)cc1 | 27.6 | 6.3 | 4.38 | – | – |
| FC(F)(F)C1(c2nnc(-c3nn(-c4ccccc4Cl)c(-c4ccc(Cl)cc4)c3Cn3cncn3)s2)CC1 | – | – | 1.66 | 23.68 | – |
| Cc1ccc(C2(c3nnc(-c4nn(-c5ccc(Cl)cc5Cl)c(-c5ccc(Cl)cc5)c4Cn4cncn4)s3)CC2)cc1 | – | – | – | 23.68 | – |
| CC(C)(C)c1nnc(-c2nn(-c3ccc(Cl)cc3Cl)c(-c3ccc(Br)cc3)c2Cn2cncn2)s1 | 430 | – | 1.54 | 23.68 | IC50 (Cytochrome P450 1A2): 2700 nM; IC50 (Cytochrome P450 2C9): 2600 nM; IC50 (Cytochrome P450 3A4): > 20000 nM; Activity (Nucleic Acid): Non-toxic; IC50 (Cytochrome P450 2D6): > 20000 nM |
| FC(F)(F)C1(c2nnc(-c3nn(-c4ccc(Cl)cc4Cl)c(-c4ccc(Cl)cc4)c3Cn3cncn3)s2)CCC1 | 505 | 175 | – | 23.68 | Activity (Mus musculus [18]): 34.45%; Activity (Rattus norvegicus [3]): 14.43%; IC50 (Cytochrome P450 1A2): > 20000 nM; IC50 (Cytochrome P450 2C9): > 20000 nM; IC50 (Cytochrome P450 3A4): > 20000 nM; IC50 [16]: > 10000 nM; Activity (Nucleic Acid): Non-toxic; Activity [17]: Non-toxic; EC50 [19]: > 100000 nM; EC50 (Vero): > 100000 nM; EC50 (HCT-116): > 100000 nM; EC50 (HEK293): > 100000 nM; IC50 (Cytochrome P450 2D6): > 20000 nM |
| CC1(c2nnc(-c3nn(-c4ccc(Cl)cc4Cl)c(-c4ccc(Cl)cc4)c3Cn3cncn3)s2)CC1 | – | – | 2.4 | 23.68 | – |
| FC(F)(F)C1(c2nnc(-c3nn(-c4ccccc4Cl)c(-c4ccc(Cl)cc4)c3Cn3cncn3)s2)CCC1 | – | – | 1.01 | 23.68 | – |
| FC(F)(F)C1(c2nnc(-c3nn(-c4ccc(Cl)cc4Cl)c(-c4ccc(Br)cc4)c3Cn3cncn3)s2)CCC1 | – | – | 3.27 | 23.68 | – |
| Clc1ccc(-c2c(Cn3cncn3)c(-c3nnc(C4(c5ccc(Cl)cc5)CC4)s3)nn2-c2ccccc2Cl)cc1 | 265 | 274 | 0.966 | 23.68 | – |
| Clc1ccc(-c2c(Cn3cncn3)c(-c3nnc(C4(c5ccccc5)CC4)s3)nn2-c2ccc(Cl)cc2Cl)cc1 | – | – | – | 23.68 | – |
| Cc1ccc(C2(c3nnc(-c4nn(-c5ccc(Cl)cc5Cl)c(-c5ccc(Br)cc5)c4Cn4cncn4)s3)CC2)cc1 | – | – | 2.74 | 23.68 | – |
| CC1(c2nnc(-c3nn(-c4ccc(Cl)cc4Cl)c(-c4ccc(Br)cc4)c3Cn3cncn3)s2)CC1 | – | – | 2.91 | 23.68 | – |
| Clc1ccc(C2(c3nnc(-c4nn(-c5ccc(Cl)cc5Cl)c(-c5ccc(Br)cc5)c4Cn4cncn4)s3)CC2)cc1 | – | – | 0.877 | 23.68 | – |
| Cc1c(C(=O)NN2CCCCC2)nn(-c2ccc(Cl)cc2Cl)c1-c1ccc(Cl)cc1 [RIMONABANT] | – | – | – | 18.02 | Activity (Rattus norvegicus [3]): 10.61%; Tmax [4]: 0.5 h; Cmax [5]: 290 ng/mL; Cmax [6]: 300 ng/mL; Clast (Rattus norvegicus [8]): 10 ng/mL; half-life [9]: 8.23 h; half-life [10]: 3.09 h; clearance [11]: 82.4 mL/min/kg; AUC (Rattus norvegicus [12]): 33.4 min/µg/mL; AUC (Rattus norvegicus [13]): 12.59 min/µg/mL; bioavailability [14]: 53.1%; IC50 (Cytochrome P450 1A2): > 20000 nM; IC50 (Cytochrome P450 3A4): > 20000 nM; IC50 [16]: 4800 nM; Activity (Nucleic Acid): Non-toxic; Activity [17]: Non-toxic; IC50 (Cytochrome P450 2D6): > 20000 nM |
| FC(F)(F)C1(c2nnc(-c3nn(-c4ccc(Cl)cc4Cl)c(-c4ccc(Cl)cc4)c3Cn3cncn3)s2)CC1 | 3630 | 1590 | – | 23.68 | – |
| FC(F)(F)C1(c2nnc(-c3nn(-c4ccc(Cl)cc4Cl)c(-c4ccc(Br)cc4)c3Cn3cncn3)s2)CC1 | – | – | 0.991 | 23.68 | – |
| Clc1ccc(-c2c(Cn3cncn3)c(-c3nnc(C4(c5ccc(Cl)cc5)CC4)s3)nn2-c2ccc(Cl)cc2Cl)cc1 | – | – | – | 23.68 | – |
| FC(F)(F)C1(c2nnc(-c3nn(-c4ccccc4Cl)c(-c4ccc(Br)cc4)c3Cn3cncn3)s2)CC1 | 124 | 125 | 0.992 | – | – |
| CC(C)(C)c1nnc(-c2nn(-c3ccccc3Cl)c(-c3ccc(Cl)cc3)c2Cn2cncn2)s1 | – | – | – | 23.68 | – |
| CC(C)(C)c1nnc(-c2nn(-c3ccc(Cl)cc3Cl)c(-c3ccc(Cl)cc3)c2Cn2cncn2)s1 | 1140 | 659 | 1.73 | 23.68 | – |
| FC(F)(F)c1ccccc1-n1nc(-c2nnc(C3(C(F)(F)F)CCC3)s2)c(Cn2cncn2)c1-c1ccc(Cl)cc1 | 76.8 | 11.8 | 6.48 | 23.68 | – |
| Clc1ccc(-n2nc(-c3nnc(C4(c5ccccc5)CC4)s3)c(Cn3cncn3)c2-c2ccc(Br)cc2)c(Cl)c1 | – | – | 2.23 | 23.68 | – |
